These are literature values, as cited in patent publication US20080299189A1, “CONTROLLED RELEASE DOPAMINE AGONIST COMPOSITIONS” (DRUGTECH CORPORATION, priority 2007, published 2008).

For data set [1] the following is noted: compared to placebo.

One may read the half-life as how long it takes for the measured level to halve. Take `CCCN[C@H]1CCc2nc(N)sc2C1` [pramipexole, (S)-2-amino-4,5,6,7-tetrahydro-6-(propylamino)benzothiazole]: in data set [1], the “relative risk of hallucination” value is listed as 5.2, the “relative risk of hypotension” value is given as 1.65 and the “relative risk of somnolence” value is recorded as 2.01. The half-life (in vivo) was 8.5 h. Also, for the setting “printed as a time”, the Cmax is 1 to 3 h.
